Laboratory results from ChEMBL document CHEMBL5321279 (J Med Chem, 2023).
≈ marks a conversion by molar mass, not a printed value.

Tests used:
[1] = Lipophilicity, logP of compound; assay type: physicochemical; settings: octanol/water
[2] = Lipophilicity, logD of compound; assay type: physicochemical; settings: octanol/water
[3] = Apparent permeability of the compound from apical to basolateral side in human Caco-2 cells incubated for 2 hrs by LC-MS/MS analysis; assay type: ADME, cell-based; settings: for Papp A→B at 2 h: Caco-2
[4] = Efflux ratio of permeability in human Caco-2 cells from basolateral to apical side over apical to basolateral side in human Caco-2 cells incubated for 2 hrs by LC-MS/MS analysis; assay type: ADME, cell-based; settings: caco-2, 2 h
[5] = Thermodynamic aqueous solubility at pH 2 measured at 72 hrs by UPLC analysis; assay type: physicochemical; settings: aqueous solution, read-out: Therm_solubility
[6] = Thermodynamic aqueous solubility at pH 7 measured at 24 hrs by UPLC analysis; assay type: physicochemical; settings: aqueous solution, read-out: Therm_solubility
[7] = Aqueous stability of the compound assessed as compound remaining at pH 2 measured at 24 hrs by UPLC analysis; assay type: physicochemical; settings: aqueous solution, read-out: Stability
[8] = Aqueous stability of the compound assessed as compound remaining at pH 7 measured at 24 hrs by UPLC analysis; assay type: physicochemical; settings: aqueous solution, read-out: Stability
[9] = Stability of compound in rat gastrointestinal S9 fraction assessed as half life at pH 7.4 measured upto 120 mins by LC-MS/MS analysis; assay type: ADME, subcellular, Gastrointestinal tract
[10] = Stability of compound in dog gastrointestinal S9 fraction assessed as half life at pH 7.4 measured upto 120 mins by LC-MS/MS analysis; assay type: ADME, subcellular, Canis lupus familiaris, Gastrointestinal tract
[11] = Stability of compound in cynomolgus monkey gastrointestinal S9 fraction assessed as half life at pH 7.4 measured upto 120 mins by LC-MS/MS analysis; assay type: ADME, subcellular, Macaca fascicularis, Gastrointestinal tract
[12] = Stability of compound in human gastrointestinal S9 fraction assessed as half life at pH 7.4 measured upto 120 mins by LC-MS/MS analysis; assay type: ADME, subcellular, Gastrointestinal tract
[13] = Stability of compound in rat plasma assessed as half life measured upto 4 hrs by LC-MS/MS analysis; assay type: ADME, cell-free
[14] = Stability of compound in dog plasma assessed as half life measured upto 4 hrs by LC-MS/MS analysis; assay type: ADME, cell-free, Canis lupus familiaris
[15] = Stability of compound in cynomolgus monkey plasma assessed as half life measured upto 4 hrs by LC-MS/MS analysis; assay type: ADME, cell-free, Macaca fascicularis
[16] = Stability of compound in human plasma assessed as half life measured upto 4 hrs by LC-MS/MS analysis; assay type: ADME, cell-free
[17] = Stability of compound in rat liver S9 fraction assessed as half life at pH 7.4 measured upto 90 mins by LC-MS/MS analysis; assay type: ADME, subcellular
[18] = Stability of compound in dog liver S9 fraction assessed as half life at pH 7.4 measured upto 90 mins by LC-MS/MS analysis; assay type: ADME, subcellular, Canis lupus familiaris
[19] = Stability of compound in cynomolgus monkey liver S9 fraction assessed as half life at pH 7.4 measured upto 90 mins by LC-MS/MS analysis; assay type: ADME, subcellular, Macaca fascicularis
[20] = Stability of compound in human liver S9 fraction assessed as half life at pH 7.4 measured upto 90 mins by LC-MS/MS analysis; assay type: ADME, subcellular
[21] = Cmax in ferret infected with SARS-CoV-2 assessed as prodrug conversion by measuring (2R,3R,4S,5R)-2-(4-aminopyrrolo[2,1-f][1,2,4]triazin-7-yl)-3,4-dihydroxy-5-(hydroxymethyl)tetrahydrofuran-2-carbonitrile at 10 mg/kg, po BID measured after 4 days by LC-MS/MS analysis; assay type: ADME, organism-based, Mustela putorius furo; set-up: time 4 day, dose 10 mg/kg, route po; settings: in vivo, 96 h
[22] = AUC(0 to 24 hrs) in ferret infected with SARS-CoV-2 assessed as prodrug conversion by measuring (2R,3R,4S,5R)-2-(4-aminopyrrolo[2,1-f][1,2,4]triazin-7-yl)-3,4-dihydroxy-5-(hydroxymethyl)tetrahydrofuran-2-carbonitrile at 10 mg/kg, po BID measured after 4 days by LC-MS/MS analysis; assay type: ADME, organism-based, Mustela putorius furo; set-up: dose 10 mg/kg, time 4 day, route po; settings: in vivo, 96 h
[23] = Prodrug conversion in SARS-CoV-2 infected in ferret assessed as (2R,3R,4S,5R)-2-(4-aminopyrrolo[2,1-f][1,2,4]triazin-7-yl)-3,4-dihydroxy-5-(hydroxymethyl)tetrahydrofuran-2-carbonitrile mediated log10 reduction of genomic RNA at 10 mg/kg, po BID measured after 4 days by RT-qPCR analysis; assay type: ADME, organism-based, Mustela putorius furo; settings: in vivo, 96 h, time 4 day
[24] = Cmax in mouse infected with SARS-CoV-2 assessed as prodrug conversion by measuring (2R,3R,4S,5R)-2-(4-aminopyrrolo[2,1-f][1,2,4]triazin-7-yl)-3,4-dihydroxy-5-(hydroxymethyl)tetrahydrofuran-2-carbonitrile at 30 mg/kg, po BID measured after 4 days by LC-MS/MS analysis; assay type: ADME, organism-based; set-up: dose 30 mg/kg, time 4 day, route po; settings: in vivo, 96 h
[25] = AUC(0 to 24 hrs) in SARS-CoV-2 infected mouse assessed as prodrug conversion (2R,3R,4S,5R)-2-(4-aminopyrrolo[2,1-f][1,2,4]triazin-7-yl)-3,4-dihydroxy-5-(hydroxymethyl)tetrahydrofuran-2-carbonitrile at 30 mg/kg, po BID measured after 4 days by LC-MS/MS analysis; assay type: ADME, organism-based; set-up: dose 30 mg/kg, time 4 day, route po; settings: in vivo, 96 h
[26] = Prodrug conversion in SARS-CoV-2 infected in mouse assessed as (2R,3R,4S,5R)-2-(4-aminopyrrolo[2,1-f][1,2,4]triazin-7-yl)-3,4-dihydroxy-5-(hydroxymethyl)tetrahydrofuran-2-carbonitrile mediated log10 reduction of genomic RNA in lung at 30 mg/kg, po BID measured after 4 days by RT-qPCR analysis; assay type: ADME, organism-based; settings: in vivo, 96 h, time 4 day
MT4 = assay: Cytotoxicity against human MT4 cells assessed as reduction in cell growth measured after 5 days by CellTiter-Glo assay; assay type: toxicity, cell-based; settings: mt4, 120 h, time 5 day
PC-3 = assay: Cytotoxicity against human PC-3 cells assessed as reduction in cell growth measured after 5 days by CellTiter-Glo assay; assay type: toxicity, cell-based; settings: pc-3, 120 h, time 5 day
HepG2 = assay: Cytotoxicity against human HepG2 cells assessed as reduction in cell growth measured after 5 days by CellTiter-Glo assay; assay type: toxicity, cell-based; settings: hepg2, 120 h, time 5 day
Huh-7 = assay: Cytotoxicity against human Huh-7 cells assessed as reduction in cell growth measured after 5 days by CellTiter-Glo assay; assay type: toxicity, cell-based; settings: huh-7, 120 h, time 5 day
MRC5 = assay: Cytotoxicity against human MRC5 cells assessed as reduction in cell growth measured after 5 days by CellTiter-Glo assay; assay type: toxicity, cell-based; settings: mrc5, 120 h, time 5 day
[27] = Cytotoxicity against human NHBE-T cells assessed as reduction in cell growth measured after 5 days by CellTiter-Glo assay; assay type: toxicity, cell-based; settings: nhbe-t, 120 h, time 5 day
PBMC [28] = assay: Cytotoxicity against quiescent human PBMC cells assessed as reduction in cell growth measured after 5 days by CellTiter-Glo assay; assay type: toxicity, cell-based; settings: pbmc, 120 h, time 5 day
PBMC [29] = assay: Cytotoxicity against stimulated human PBMC cells assessed as reduction in cell growth measured after 5 days by CellTiter-Glo assay; assay type: toxicity, cell-based; settings: pbmc, 120 h, time 5 day
Hepatocyte = assay: Cytotoxicity against human primary hepatocytes assessed as reduction in cell growth measured after 5 days by CellTiter-Glo assay; assay type: toxicity, cell-based; settings: hepatocytes, 120 h, time 5 day

Compound	logD [2]	Ratio [4]	solubility thermodynamic at 72 h [5] [µg/mL]	solubility thermodynamic at 24 h [6] [µg/mL]	remaining at 24 h [7] [%]	remaining at 24 h [8] [%]	half-life [9] [min]	half-life [10] [min]	half-life [11] [min]	half-life [12] [min]	half-life [13] [min]	half-life [14] [min]	half-life [15] [min]	half-life [16] [min]	half-life at […] [17] [min]	half-life at […] [18] [min]	half-life at […] [19] [min]	half-life at […] [20] [min]	Papp A→B at 2 h [3] [×10⁻⁶ cm/s]	further results
[N-]=[N+]=N[C@]1(CO)O[C@@H](n2ccc(N)nc2=O)[C@H](O)[C@@H]1O [4'-AZIDOCYTIDINE]																				logP [1]: > 2
CC(C)C(=O)OC[C@H]1O[C@@](C#N)(c2ccc3c(N)ncnn23)[C@H](OC(=O)C(C)C)[C@@H]1OC(=O)C(C)C	3.5	< 1	600 (≈ 1.2 mM)	< 10	≥ 96	≥ 98	> 2	< 2	< 2	< 2	< 2	182	7.2	5.5	2.9	< 2	< 2	< 2		Papp ([3]; caco-2, 2 h): 22 10^-6 cm/s; Cmax [21]: 5 µM; AUC [22]: 54 µM·h; log(activity) [23]: -1.98; Cmax [24]: 13 µM; AUC [25]: 95 µM·h; log(activity) [26]: -3.29
CC(=O)OC[C@H]1O[C@@](C#N)(c2ccc3c(N)ncnn23)[C@H](O)[C@@H]1O	< 0.3	0.5		1000 (≈ 3 mM)	89	96	> 2	226	38	28	3	564	146	70	10	25	5.3	19	1.4	
CC(=O)OC[C@H]1O[C@@](C#N)(c2ccc3c(N)ncnn23)[C@H](OC(C)=O)[C@@H]1OC(C)=O	1.5	3	≥ 40000	1400 (≈ 3.35 mM)	82	79	> 2	16	< 2	< 2	< 2	111	9.2	4.7	< 2	< 2	< 2	< 2	4	
COc1ccc(C[C@H](N)C(=O)N[C@H]2[C@@H](O)[C@H](n3cnc4c(N(C)C)ncnc43)O[C@@H]2CO)cc1 [PUROMYCIN]																				CC50 (MT4): 120 nM; CC50 (PC-3): 470 nM; CC50 (HepG2): 780 nM; CC50 (Huh-7): 430 nM; CC50 (MRC5): 320 nM; CC50 [27]: 600 nM; CC50 (PBMC [28]): 5050 nM; CC50 (PBMC [29]): 1100 nM; CC50 (Hepatocyte): 1100 nM
